# According to patent US12649723B2, “Carbonohydrazonoyl dicyanide compounds comprising 2 or more aryl or heteroaryl connected via linker and use thereof” (KOREA INSTITUTE OF SCIENCE AND TECHNOLOGY, priority 2020, dated 2026):
# pIC50: −log10 of the molar value.
# What was measured:
# [1] = system: Tau-BiFC cells; assay: Cell viability (cytotoxicity) in tau-BiFC cells, count of stained nuclei; assay type: cell-based; settings: compound 10 μM; Forskolin-only group = 100% cell viability
# Description: (§1) In order to select novel tau protein aggregation-inhibiting substances, tau-BiFC cell model, in which formation of tau oligomers in living cells is easily observed, was used. Tau-BiFC cells were aliquoted into a 384-well plate. On the next day, the cells were treated with each of the compounds prepared according to Examples 1 to 175 at concentrations of 1 μM, 3 μM, and 10 μM, together with Forskolin (at a treatment concentration of 30 μM), which is a compound inducing tau protein aggregation by activating tau […] PKA. After 48 hours, nuclei in the cells were stained using Hoechst (at a treatment concentration of 2 μg/mL), and BiFC fluorescence intensity was automatically measured using Operetta (PerkinElmer) to count stained nuclei in each well out of the entire well plate. The group treated only with Forskolin, which induces tau protein aggregation, was set to a reference point of a 100% tau protein-aggregated state, and the effects of the compounds were confirmed using the equation “BiFC fluorescence intensity due to compound synthesized according to embodiment of present invention/(fluorescence intensity of control group treated only with Forskolin inducing tau protein aggregation−fluorescence intensity of untreated control group)×100”. Furthermore, the degree of cytotoxicity induced by the newly synthesized compound was also measured based on the 100% cell viability of the group treated only with Forskolin as a reference, and the cytotoxicity value of each compound was calculated using the equation “(number of stained nuclei in group treated with compound/number of stained nuclei in group treated with Forskolin)×100”. Based on the treatment results, substances inhibiting intracellular tau protein aggregation were selected from a series of candidate groups showing a tau protein aggregation inhibition rate of 70% or more and cell viability of 100% at a compound treatment concentration of 10 μM or more.
# (§2) In order to evaluate dose-dependent tau protein aggregation inhibition effects of the compounds selected according to Experimental Example 1 on tau protein aggregation, tau-BiFC cells were treated with the selected compounds at concentrations of 0.03 μM, […], 0.3 μM, 1 μM, 3 μM, 10 μM, and 30 μM, respectively, together with Forskolin (at a treatment concentration of 30 μM), which is a tau protein aggregation inducing substance. After 48 hours, tau protein aggregation reaction and degrees of cytotoxicity were analyzed by observing images of the cells. IC50 and toxicity of the compounds were analyzed by way of nonlinear regression analysis of prism software (Graph Pad).
# [2] = molecular target: T1, tau protein (Homo sapiens, UniProt P10636); assay: Tau-BiFC cell model: inhibition of tau protein aggregation; assay type: cell-based; settings: for remaining activity at 10 µM: 48 h, compound 10 μM, BiFC fluorescence, Forskolin-only group = 100% tau protein-aggregated state, read-out: Response (% @10 μM); for pIC50: Tau BiFC in cells, with Forskolin 30 μM, 48 hours
# T1 construct: fused on or other part: Split fluorescent-protein halves for BiFC are fused to tau; In the published tau-BiFC line these are Venus VN173 and VC155
# T1 sequence (P10636 2-441 isoform P10636-8 limits assumed): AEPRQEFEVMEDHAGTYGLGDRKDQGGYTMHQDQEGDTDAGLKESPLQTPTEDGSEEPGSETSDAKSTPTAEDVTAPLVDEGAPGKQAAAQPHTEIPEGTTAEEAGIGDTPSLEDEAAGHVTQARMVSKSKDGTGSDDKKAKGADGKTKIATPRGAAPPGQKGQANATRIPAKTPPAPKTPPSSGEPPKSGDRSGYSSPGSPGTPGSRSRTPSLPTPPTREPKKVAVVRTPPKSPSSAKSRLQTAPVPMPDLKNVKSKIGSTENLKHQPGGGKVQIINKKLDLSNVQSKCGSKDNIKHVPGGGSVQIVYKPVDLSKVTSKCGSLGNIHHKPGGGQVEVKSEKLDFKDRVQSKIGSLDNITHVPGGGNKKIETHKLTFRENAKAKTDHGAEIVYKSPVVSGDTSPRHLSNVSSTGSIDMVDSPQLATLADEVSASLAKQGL
# Description: as §1, §2
Compound,Cell viability (% @10 μM) [1],remaining activity at 10 µM [2],pIC50 [2]
"CN(N=C(C#N)C#N)c1ccc(Oc2cccc(F)c2)nc1 [Compound 76, (6-(3-fluorophenoxy)pyridin-3-yl)(methyl)carbonohydrazonoyl dicyanide]",121.7%,79.9%,
"CN(N=C(C#N)C#N)c1ccc(Oc2ccccc2)c(F)c1 [Compound 77, (3-fluoro-4-phenoxyphenyl)(methyl)carbonohydrazonoyl dicyanide]",91.6%,84.8%,
"CN(N=C(C#N)C#N)c1ccc(Oc2ccccc2)c(C(F)(F)F)c1 [Compound 78, methyl(4-phenoxy-3-(trifluoromethyl)phenyl)carbonohydrazonoyl dicyanide]",74%,69.6%,
"Cc1cc(NN=C(C#N)C#N)ccc1Oc1ccncc1 [Compound 79, (3-methyl-4-(pyridin-4-yloxy)phenyl)carbonohydrazonoyl dicyanide]",115.7%,65.9%,
"N#CC(C#N)=NNc1ccc(Oc2ccncc2)c(F)c1 [Compound 80, (3-fluoro-4-(pyridin-4-yloxy)phenyl)carbonohydrazonoyl dicyanide]",112.3%,68%,
"Cc1cc(NN=C(C#N)C#N)ccc1Oc1cncnc1 [Compound 81, (3-methyl-4-(pyrimidin-5-yloxy)phenyl)carbonohydrazonoyl dicyanide]",116.2%,0%,6.26
"N#CC(C#N)=NNc1ccc(Oc2cncnc2)c(F)c1 [Compound 82, (3-fluoro-4-(pyrimidin-5-yloxy)phenyl)carbonohydrazonoyl dicyanide]",126.4%,0%,5.53
"N#CC(C#N)=NNc1ccc(Oc2ccccn2)cc1 [Compound 83, (4-(pyridin-2-yloxy)phenyl)carbonohydrazonoyl dicyanide]",104%,0%,5.94
"N#CC(C#N)=NNc1ccc(Oc2cnccn2)cc1 [Compound 84, (4-(pyrazin-2-yloxy)phenyl)carbonohydrazonoyl dicyanide]",111.4%,0%,5.67
"N#CC(C#N)=NNc1ccc(Oc2cccnc2)cc1 [Compound 85, (4-(pyridin-3-yloxy)phenyl)carbonohydrazonoyl dicyanide]",99.1%,0%,5.80
"N#CC(C#N)=NNc1ccc(Oc2ccccc2C#N)cc1 [Compound 86, (4-(2-cyanophenoxy)phenyl)carbonohydrazonoyl dicyanide]",72.6%,0%,5.67
"N#CC(C#N)=NNc1ccc(Oc2ccc(C#N)cc2)cc1 [Compound 87, (4-(4-cyanophenoxy)phenyl)carbonohydrazonoyl dicyanide]",39.4%,0%,5.91
"N#CC(C#N)=NNc1ccc(Oc2cccc(C#N)c2)cc1 [Compound 88, (4-(3-cyanophenoxy)phenyl)carbonohydrazonoyl dicyanide]",44.4%,0%,5.51
"N#CC(C#N)=NNc1ccc(Oc2ccc(C(F)(F)F)nc2)cc1 [Compound 89, (4-(6-(trifluoromethyl)pyridin-3-yloxy)phenyl)carbonohydrazonoyl dicyanide]",32.5%,0%,5.62
"N#CC(C#N)=NNc1ccc(Oc2ccc(C(F)(F)F)cn2)cc1 [Compound 90, (4-(5-(trifluoromethyl)pyridin-2-yloxy)phenyl)carbonohydrazonoyl dicyanide]",43.7%,0%,5.89
"N#CC(C#N)=NNc1ccc(Oc2ncccn2)cc1 [Compound 91, (4-(pyrimidin-2-yloxy)phenyl)carbonohydrazonoyl dicyanide]",117%,0%,5.51
